Assay results: patent publication US12252490B2, “Inhibiting deubiquitinase USP25 and USP28” (Valo Health, Inc., priority 2018, dated 2025)

molecular target: T1, USP28 (USP28-5(1-1077)-TEV-6*His; LifeSensors) (Homo sapiens, UniProt Q96RU2); experiment: Ubiquitin-Rhodamine 110 Assay for USP28 Activity, Example A-1(b); type: biochemical; settings: 75 pM enzyme, 25 nM Ub-Rh110, 384-well follow-up format
T1 construct: construct USP28 (USP28-5(1-1077)-TEV-6*His; LifeSensors); TEV cleavage site (C); 6xHis (C); purchased LifeSensors
T1 sequence (Q96RU2 1-1077): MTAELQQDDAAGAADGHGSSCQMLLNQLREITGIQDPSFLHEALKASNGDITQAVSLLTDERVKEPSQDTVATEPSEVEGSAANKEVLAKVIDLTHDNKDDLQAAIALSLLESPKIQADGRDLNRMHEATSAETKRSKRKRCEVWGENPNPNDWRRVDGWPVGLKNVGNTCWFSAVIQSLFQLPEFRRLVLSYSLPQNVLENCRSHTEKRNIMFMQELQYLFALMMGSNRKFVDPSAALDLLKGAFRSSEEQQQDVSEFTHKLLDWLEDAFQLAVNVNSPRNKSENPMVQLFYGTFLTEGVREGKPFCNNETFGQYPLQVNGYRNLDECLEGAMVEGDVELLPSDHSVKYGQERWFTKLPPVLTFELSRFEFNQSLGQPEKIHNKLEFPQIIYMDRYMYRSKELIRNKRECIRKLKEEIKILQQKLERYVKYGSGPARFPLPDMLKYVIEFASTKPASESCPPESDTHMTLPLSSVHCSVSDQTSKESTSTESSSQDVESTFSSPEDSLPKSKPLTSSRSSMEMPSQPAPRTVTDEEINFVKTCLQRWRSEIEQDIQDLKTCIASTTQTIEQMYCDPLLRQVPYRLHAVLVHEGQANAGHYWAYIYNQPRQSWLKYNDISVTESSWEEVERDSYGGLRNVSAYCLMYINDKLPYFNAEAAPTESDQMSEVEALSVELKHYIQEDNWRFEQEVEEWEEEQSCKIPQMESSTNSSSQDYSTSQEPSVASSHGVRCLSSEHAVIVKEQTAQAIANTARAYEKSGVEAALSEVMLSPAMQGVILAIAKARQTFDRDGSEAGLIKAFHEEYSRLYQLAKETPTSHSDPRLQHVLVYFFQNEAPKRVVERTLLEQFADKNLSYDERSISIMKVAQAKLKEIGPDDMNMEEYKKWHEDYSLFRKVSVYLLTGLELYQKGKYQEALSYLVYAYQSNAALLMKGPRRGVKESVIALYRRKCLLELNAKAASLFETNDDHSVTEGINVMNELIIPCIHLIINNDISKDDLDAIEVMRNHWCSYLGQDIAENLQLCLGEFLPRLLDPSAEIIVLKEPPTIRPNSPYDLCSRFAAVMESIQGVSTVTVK
Experimental: Each assay was performed in a final volume of 20 μL in assay buffer containing 20 mM Tris-HCl (pH 8.0, (1M Tris-HCl, pH 8.0 solution; Corning 46-031-CM)), 2 mM CaCl2 (1M Calcium Chloride solution; Sigma #21114) 2 mM BME (2-Mercaptoethanol; Sigma 63689-25ML-F), 0.01% Prionex ([…] filtered, Sigma #G-0411), and 0.01% Triton X-100. Stock compound solutions were stored at −20° C. as 10 mM in DMSO. Up to 1 month prior to the assay, 2 mM test compounds were pre-dispensed into assay plates (Black, low volume; Corning #3820) and frozen at −20° C. Prestamped assay plates were allowed to come to room temperature on the day of the assay. For the screen, 100 nL of 2 mM was pre-dispensed for a final screening concentration of 10 μM (DMSO(fc)=0.5%). Enzyme (USP28, construct USP28 (USP28-5(1-1077)-TEV-6*His; LifeSensors) concentration and incubation times were optimized for the maximal signal-to-background while maintaining initial velocity conditions at a fixed substrate concentration. The final concentration of the enzyme in the assay was 400 pM. Final substrate (Ub-Rh110; Ubiquitin-Rhodamine 110, R&D Systems #U-555) concentration was 25 nM with [Ub-Rh110]<<Km. 10 μL of 2× enzyme was added to assay plates (pre-stamped with compound) either simultaneously with 2×Ub-Rh110 or preincubated with USP28 40 minutes prior to the addition of 10 μL of 2×Ub-Rh110 to compound plates. Plates were incubated stacked for 90 minutes at room temperature before fluorescence was read on the Envision (Excitation at 485 nm and Emission at 535 nm; Perkin Elmer) or on the PheraSTAR (Excitation at 485 nm and Emission at 535 nm; BMG Labtech).
For follow-up studies, each assay was performed in a final volume of 15 μL in assay buffer containing 20 mM Tris-HCl (pH 8.0, (1M Tris-HCl, pH 8.0 solution; Corning 46-031-CM)), 3 mM BME (2-Mercaptoethanol; Sigma 63689-25ML-F), 0.03% BGG (0.22 μM filtered, Sigma, G7516-25G), and 0.01% Triton X-100 (Sigma, T9284-10L). Nanoliter quantities of either an 8-point or 10-point, 3-fold serial dilution in DMSO was pre-dispensed into assay plates (Perkin Elmer, ProxiPlate-384 F Plus, #) for a final test concentration of either 25 μM to 11 nM or 25 μM to 1.3 nM, respectively. Enzyme USP28, construct USP28 (USP28-5(1-1077)-TEV-6*His; LifeSensors) concentration and incubation times were optimized for the maximal signal-to-background while maintaining initial velocity conditions at a fixed substrate concentration. The final concentration of the enzyme in the assay was 75 pM. Final substrate (Ub-Rh110; Ubiquitin-Rhodamine 110, R&D Systems #U-555) concentration was 25 nM with [Ub-Rh110]<<Km. 5 μL of 2× enzyme was added to assay plates (pre-stamped with compound) preincubated with USP28 for 30 minutes and then 5 μL of 2×Ub-Rh110 was added to assay plates. Plates were incubated stacked for 20 minutes at room temperature before 5 μL of stop solution was added (final concentration of 10 mM citric acid (Sigma, 251275-500G)). Fluorescence was read on the Envision (Excitation at 485 nm and Emission at 535 nm; Perkin Elmer) or on the PheraSTAR (Excitation at 485 nm and Emission at 535 nm; BMG Labtech).
For assay formats Examples A-1a, A-1b, and A-2, data were reported as percent inhibition compared with control wells based on the following equation: % inh=1−((FLU−AveLow)/(AveHigh−AveLow)) where FLU=measured Fluorescence, AveLow=average Fluorescence of no enzyme control (n=16), and AveHigh=average Fluorescence of DMSO control (n=16). IC50 values were determined by curve fitting of the standard 4 parameter logistic fitting algorithm included in the Activity Base software package: IDBS XE Designer Model205. Data is fitted using the Levenburg Marquardt algorithm.

| Structure (SMILES) | Assay A-1(b) (IC50 range) |
| --- | --- |
| CCn1ccc2cc(C(=O)NC[C@@H](C)c3cc(F)c(N4CCNCC4)cc3F)cnc21 (single isomer, unassigned) [Example 2-1] | ++ (“++”: 0.2-2 μM) |
| CCn1ccc2cc(C(=O)NC[C@H](C)c3cc(F)c(N4CCNCC4)cc3F)cnc21 (single isomer, unassigned) [Example 2-2] | + (“+”: 2-10 μM) |
| CCn1ccc2cc(C(=O)NC[C@H](C)c3cc(F)c(N4CC5CCC(C4)N5)cc3F)cnc21 (single isomer, unassigned) [Example 2-3] | ++ (“++”: 0.2-2 μM) |
| CCn1ccc2cc(C(=O)NC[C@@H](C)c3cc(F)c(N4CC5CCC(C4)N5)cc3F)cnc21 (single isomer, unassigned) [Example 2-4] | ++ (“++”: 0.2-2 μM) |
| CCn1ccc2cc(C(=O)NC[C@H](C)c3cc(F)c(N4CC5CCC(C4)N5)cc3F)nnc21 (single isomer, unassigned) [Example 4-2] | ++ (“++”: 0.2-2 μM) |
| CCn1ccc2cc(C(=O)NC[C@@H](C)c3cc(F)c(N4CC5CCC(C4)N5)cc3F)nnc21 (single isomer, unassigned) [Example 4-3] | ++ (“++”: 0.2-2 μM) |
| CCn1ccc2cc(C(=O)NCCc3cc(F)c(N4CC5CCC(C4)N5)cc3F)cnc21 [Example 1-1, N-[2-(4-[3,8-diazabicyclo[3.2.1]octan-3-yl]-2,5-difluorophenyl)ethyl]-1-ethyl-1H-pyrrolo[2,3-b]pyridine-5-carboxamide] | +++ (“+++”: 0.05-0.2 μM) |
| O=C(NCCc1ccc(N2CCNCC2)cc1)c1cnc2[nH]ccc2c1 [Example 1-2, N-(4-(piperazin-1-yl)phenethyl)-1H-pyrrolo[2,3-b]pyridine-5-carboxamide] | + (“+”: 2-10 μM) |
| Cn1ccc2cc(C(=O)NCCc3ccc(N4CCNCC4)cc3)cnc21 [Example 1-3, 1-methyl-N-(4-(piperazin-1-yl)phenethyl)-1H-pyrrolo[2,3-b]pyridine-5-carboxamide] | ++ (“++”: 0.2-2 μM) |
| CCn1ccc2cc(C(=O)NCCc3ccc(N4CCNCC4)cc3)cnc21 [Example 1-4, 1-ethyl-N-(4-(piperazin-1-yl)phenethyl)-1H-pyrrolo[2,3-b]pyridine-5-carboxamide] | +++ (“+++”: 0.05-0.2 μM) |
| Nc1c(C(=O)NCCc2ccc(N3CCNCC3)cc2)cnc2[nH]ccc12 [Example 1-5, 4-amino-N-(4-(piperazin-1-yl)phenethyl)-1H-pyrrolo[2,3-b]pyridine-5-carboxamide] | + (“+”: 2-10 μM) |
| CCn1ccc2cc(C(=O)NCCc3ccc(N4CC5CCC(C4)N5)cc3)cnc21 [Example 1-6, N-(4-(3,8-diazabicyclo[3.2.1]octan-3-yl)phenethyl)-1-ethyl-1H-pyrrolo[2,3-b]pyridine-5-carboxamide] | ++++ (“++++”: 0.001-0.05 μM) |
| CCn1ccc2cc(C(=O)NCCc3cc(F)c(N4CCNCC4)cc3F)cnc21 [Example 1-7, N-(2,5-difluoro-4-(piperazin-1-yl)phenethyl)-1-ethyl-1H-pyrrolo[2,3-b]pyridine-5-carboxamide] | +++ (“+++”: 0.05-0.2 μM) |
| O=C(NCCc1ccc(N2CCNCC2)cc1)c1cnc2c(ccn2CC(F)(F)F)c1 [Example 1-8] | +++ (“+++”: 0.05-0.2 μM) |
| CC(C)(O)Cn1ccc2cc(C(=O)NCCc3cc(F)c(N4CC5CCC(C4)N5)cc3F)cnc21 [Example 1-9, N-(4-(3,8-diazabicyclo[3.2.1]octan-3-yl)-2,5-difluorophenethyl)-1-(2-hydroxy-2-methylpropyl)-1H-pyrrolo[2,3-b]pyridine-5-carboxamide] | − (“−”: >10 μM) |
| CCn1ccc2cc(C(=O)NCCc3ccc(N4CC5CCC(C4)N5)c(F)c3)cnc21 [Example 1-10, N-(4-(3,8-diazabicyclo[3.2.1]octan-3-yl)-3-fluorophenethyl)-1-ethyl-1H-pyrrolo[2,3-b]pyridine-5-carboxamide] | +++ (“+++”: 0.05-0.2 μM) |
| CCn1cc(Cl)c2cc(C(=O)NCCc3ccc(N4CCNCC4)cc3)cnc21 [Example 3-1, 3-Chloro-1-ethyl-N-[2-[4-(piperazin-1-yl)phenyl]ethyl]-1H-pyrrolo[2,3-b]pyridine-5-carboxamide] | +++ (“+++”: 0.05-0.2 μM) |
| O=C(NCCc1ccc(N2CCNCC2)cc1)c1cnc2[nH]cc(Cl)c2c1 [Example 3-2, 3-chloro-N-(4-(piperazin-1-yl)phenethyl)-1H-pyrrolo[2,3-b]pyridine-5-carboxamide] | + (“+”: 2-10 μM) |
| CCn1ccc2cc(C(=O)NCCc3cc(F)c(N4CC5CCC(C4)N5)cc3F)nnc21 [Example 4-1, N-[2-(4-[3,8-diazabicyclo[3.2.1]octan-3-yl]-2,5-difluorophenyl)ethyl]-7-ethyl-7H-pyrrolo[2,3-c]pyridazine-3-carboxamide] | +++ (“+++”: 0.05-0.2 μM) |
| CCn1cc(Cl)c2cc(C(=O)NCCc3cc(F)c(N4CC5CCC(C4)N5)cc3F)nnc21 [Example 4-4, N-(4-(3,8-diazabicyclo[3.2.1]octan-3-yl)-2,5-difluorophenethyl)-5-chloro-7-ethyl-7H-pyrrolo[2,3-c]pyridazine-3-carboxamide] | +++ (“+++”: 0.05-0.2 μM) |
